From publication PMC8395335, “Serotonergic–Muscarinic Interaction within the Prefrontal Cortex as a Novel Target to Reverse Schizophrenia-Related Cognitive Symptoms” (International Journal of Molecular Sciences, 2021)

Tests used:
MK-801-treated mice [1] = test: Y-maze test (spontaneous alternations), MK-801-induced deficits; assay type: in vivo; conditions: for Reversal of MK-801-induced disruptions in Y-maze by combined administration: 7 days; for Effect of combined administration on spontaneous alternations in the Y-maze test: MK-801-treated
Description: (§1) Drugs were administered on two different schedules: (1) acute administration of compounds 45 min (WAY100635—5-HT1A antagonist) or 30 min (VU0357017, VU152100, VU0238429, and F15599) before MK-801 (also administered once 30 min before the test in Y-maze or T1 in NOR test); and (2) prolonged administration (once per day for 7 consecutive days) of the compounds and MK-801 with the last administration 24 h before the test (NOR test) or at the day of the test (Y-maze). […] Schedules of administration are presented graphically in Figure 2. The subeffective doses of the compounds for acute administration in the NOR test were chosen based on our previous research (see: [22, 23]) while dose-dependent studies of the activity of the compounds in reversing disruptions in the Y-maze or after prolonged administration along with MK-801 were performed within this study. Different vehicles were used throughout the study: (1) 0.9% NaCl and (2) 10% Tween 80. Vehicles were administered to all animals (e.g., control mice and MK-801-treated mice) on the same schedule as drugs were administered to the appropriate drug-treated groups of mice. Neither solvent exerted effects on animal behavior.
(§2) Male Albino Swiss mice (Charles River, Sulzfeld, Germany) weighing 20–25 g at the beginning of the experiments were used in the studies. The animals were housed in a room with a 12:12 h light-dark cycle at a temperature of 22 ± 1 °C with food and water available ad libitum. The experimental groups consisted of 8–10 animals. All drugs were administered intraperitoneally (i.p.) at a volume of 10 mL/kg. The behavioral experiments were performed by an observer who was blinded to the treatment. The procedures were conducted in accordance with the European Communities Council Directive of 22 September 2010 (2010/63/EU) and Polish legislation acts concerning animal experimentation and were approved by the II Local Ethics Committee by the Maj Institute of Pharmacology, Polish Academy of Sciences in Krakow (15/2020, 240/2020).
(§3) In acute experiments, the tested compounds (alone or in combination) were administered 30 min before MK-801 (0.3 mg/kg), which was administered 30 min before the test or training trial (T1) in the NOR test. In chronic experiments, the tested compounds (alone or in combination) and MK-801 were administered for seven days. Behavioral tests were performed on the eighth day.
The Y-maze was performed using the methods described by Miedel et al. and Kraeuter et al. with minor modifications. A black, wooden Y-shaped apparatus with equal length arms (labeled A, B, or C) spaced 120 apart was used in the behavioral experiment. Visual clues were placed inside the maze and mounted to the back wall of each arm. The experiment was performed in a well-lit room. The mice were placed in the same starting arm and were allowed to freely explore the maze for 8 min. After each trial, the maze was wiped clean. The sequence and the number of arm entries were recorded to calculate the percentage of spontaneous alternations using the following formula: [(Number of alternations)/(Total arm entries − 2)] × 100. An arm entry was scored if the animal entered the arm with all paws. Consecutive entries into three distinct arms were scored as an alternation (e.g., ACB, but not ACA) in which sequences could overlap (e.g., ACBACABAC represents […] alternations).

MK-801-treated mice [2] = test: Novel object recognition (NOR) test, MK-801-induced deficits; assay type: in vivo; conditions: for Reversal of MK-801-induced disruptions in NOR test by combined administration: 7 days; for Effect of combined administration on MK-801-induced memory deficits in the NOR test: subeffective doses; for Effect of top dose on MK-801-induced deficits in the NOR test: 5 mg/kg i.p., alone
Description: as §1, §2, §3
The NOR test was performed as described previously. Briefly, the habituation, training and test trial were carried out in a dark room in a black, plastic rectangular arena illuminated with a 355 lux bulb. During the habituation trial, the animals were allowed to explore the arena in the absence of objects (10 min/day for 2 days). The next day, the training (T1) and test (T2) trials were performed. Throughout T1, mice were allowed to freely explore two identical objects (5 min), one of which was subsequently replaced by a novel object in T2 (1 h later, 5 min of exploration). Time spent exploring (i.e., sniffing or touching) the familiar (Tfamiliar) or novel object (Tnovel) was measured by a trained observer, and then the recognition index was calculated for each mouse [(Tnovel − Tfamiliar)/(Tfamiliar + Tnovel)] × 100.

[3] = F15599 0.025 mg/kg with VU0238429 1 mg/kg (subeffective doses)
[4] = F15599 0.025 mg/kg with VU0357017 1 mg/kg (subeffective doses)
[5] = acute, F15599 0.1 mg/kg with VU0238429 5 mg/kg
[6] = acute, F15599 0.1 mg/kg with VU0357017 10 mg/kg
[7] = F15599 0.05 mg/kg with VU0238429 1 mg/kg (subeffective doses)
[8] = F15599 0.05 mg/kg with VU0357017 0.15 mg/kg (subeffective doses)

`Cc1cnc(CNCC2(F)CCN(C(=O)c3ccc(F)c(Cl)c3)CC2)nc1` [F15599] was tested, and the “Reversal of MK-801-induced reduction in spontaneous alternations in the Y-maze” value (“Reversal of MK-801-induced reduction” below) (MK-801-treated mice [1]; 7 days with MK-801, 0.025 mg/kg) was “ineffective”, the “Reversal of MK-801-induced reduction” value (MK-801-treated mice [1]; 7 days with MK-801, 0.05 mg/kg) was “ineffective” and the “Reversal of MK-801-induced reduction” value (MK-801-treated mice [1]; 7 days with MK-801, 0.1 mg/kg) was “reversed”. The “Reversal of MK-801-induced disruptions in Y-maze by combined administration” value (shortened to “Reversal … in Y-maze by combined administration”) (MK-801-treated mice [1]; F15599 0.025 mg/kg with VU0152100 0.05 mg/kg (subeffective doses)) was “did not reverse”, the “Reversal … in Y-maze by combined administration” value (MK-801-treated mice [1]; [3]) was “did not reverse” and the “Reversal … in Y-maze by combined administration” value (MK-801-treated mice [1]; [4]) was “did not reverse”. For the same compound, the “Reversal of MK-801-induced reduction” value (MK-801-treated mice [1]; acute, 0.05-0.5 mg/kg i.p.) was “no efficacy”, the “Effect of combined administration on spontaneous alternations in the Y-maze test” value (shortened to “Effect … in the Y-maze test”) (MK-801-treated mice [1]; acute, F15599 0.1 mg/kg with VU0152100 1 mg/kg) was “no effect” and the “Effect … in the Y-maze test” value (MK-801-treated mice [1]; [5]) was “no effect”. For the same compound, the “Effect … in the Y-maze test” value (MK-801-treated mice [1]; [6]) was “no effect”, the “Reversal of MK-801-induced deficits in the NOR test (recognition index)” value (shortened to “Reversal … (recognition index)”) (MK-801-treated mice [2]; 7 days with MK-801, 0.025 mg/kg i.p.) was “ineffective” and the “Reversal … (recognition index)” value (MK-801-treated mice [2]; 7 days with MK-801, 0.1 mg/kg i.p.) was “reversed”. The “Reversal of MK-801-induced disruptions in NOR test by combined administration” value (MK-801-treated mice [2]; F15599 0.05 mg/kg with VU0152100 0.05 mg/kg (subeffective doses)) was “reversed”, the “Reversal of MK-801-induced disruptions in NOR test by combined administration” value (MK-801-treated mice [2]; [7]) was “reversed” and the “Reversal of MK-801-induced disruptions in NOR test by combined administration” value (MK-801-treated mice [2]; [8]) was “reversed”. The “Reversal … (recognition index)” value (MK-801-treated mice [2]; acute, 0.05 mg/kg i.p., 30 min before MK-801) was “ineffective”, the “Reversal … (recognition index)” value (MK-801-treated mice [2]; acute, 0.1 mg/kg i.p., 30 min before MK-801 (0.3 mg/kg)) was “reversed” and the “Reversal … (recognition index)” value (MK-801-treated mice [2]; acute, 0.5 mg/kg i.p., 30 min before MK-801) was “reversed”. The “Effect of combined administration on MK-801-induced memory deficits in the NOR test” value (MK-801-treated mice [2]; acute, F15599 with VU0152100) was “no effect”, the “Effect of combined administration on MK-801-induced memory deficits in the NOR test” value (MK-801-treated mice [2]; acute, F15599 with VU0238429) was “no effect” and the “Effect of combined administration on MK-801-induced memory deficits in the NOR test” value (MK-801-treated mice [2]; acute, F15599 with VU0357017) was “no effect”.
For `COc1ccc(CN2C(=O)C(=O)c3cc(OC(F)(F)F)ccc32)cc1` [VU0238429], the “Reversal of MK-801-induced reduction” value (MK-801-treated mice [1]; 7 days with MK-801, 0.5 mg/kg) was “not”, the “Reversal of MK-801-induced reduction” value (MK-801-treated mice [1]; 7 days with MK-801, 1 mg/kg) was “not” and the “Reversal of MK-801-induced reduction” value (MK-801-treated mice [1]; 7 days with MK-801, 5 mg/kg) was “active”. For the same compound, the “Reversal … in Y-maze by combined administration” value (MK-801-treated mice [1]; [3]) was “did not reverse”, the “Reversal of MK-801-induced reduction” value (MK-801-treated mice [1]; acute, 5 mg/kg i.p.) was “ineffective” and the “Reversal of MK-801-induced reduction” value (MK-801-treated mice [1]; acute, 10 mg/kg i.p.) was “reversed”. For the same compound, the “Reversal of MK-801-induced reduction” value (MK-801-treated mice [1]; acute, 20 mg/kg i.p.) was “reversed”, the “Effect … in the Y-maze test” value (MK-801-treated mice [1]; [5]) was “no effect” and the “Reversal … (recognition index)” value (MK-801-treated mice [2]; 7 days with MK-801, 0.5 mg/kg) was “ineffective”. The “Reversal … (recognition index)” value (MK-801-treated mice [2]; 7 days with MK-801, 1 mg/kg) was “ineffective”, the “Reversal … (recognition index)” value (MK-801-treated mice [2]; 7 days with MK-801, 5 mg/kg) was “active” and the “Reversal of MK-801-induced disruptions in NOR test by combined administration” value (MK-801-treated mice [2]; [7]) was “reversed”. The “Effect of top dose on MK-801-induced deficits in the NOR test” value (MK-801-treated mice [2]; acute) was “pro-cognitive effect” and the “Effect of combined administration on MK-801-induced memory deficits in the NOR test” value (MK-801-treated mice [2]; acute, F15599 with VU0238429) was “no effect”.
`CCOC(=O)N1CCC(NCCNC(=O)c2ccccc2C)CC1` [VU0357017] was tested, and the “Reversal of MK-801-induced reduction” value (MK-801-treated mice [1]; 7 days with MK-801, 0.5 mg/kg) was “not”, the “Reversal of MK-801-induced reduction” value (MK-801-treated mice [1]; 7 days with MK-801, 1 mg/kg) was “not” and the “Reversal of MK-801-induced reduction” value (MK-801-treated mice [1]; 7 days with MK-801, 5 mg/kg) was “activity of VU0357017 was observed”. For the same compound, the “Reversal … in Y-maze by combined administration” value (MK-801-treated mice [1]; [4]) was “did not reverse”, the “Reversal of MK-801-induced reduction” value (MK-801-treated mice [1]; acute, 1-10 mg/kg i.p.) was “No efficacy” and the “Effect … in the Y-maze test” value (MK-801-treated mice [1]; [6]) was “no effect”. For the same compound, the “Reversal … (recognition index)” value (MK-801-treated mice [2]; 7 days with MK-801, 0.15 mg/kg) was “ineffective”, the “Reversal of MK-801-induced disruptions in NOR test by combined administration” value (MK-801-treated mice [2]; [8]) was “reversed” and the “Effect of top dose on MK-801-induced deficits in the NOR test” value (MK-801-treated mice [2]; acute) was “pro-cognitive effect”. The “Effect of combined administration on MK-801-induced memory deficits in the NOR test” value (MK-801-treated mice [2]; acute, F15599 with VU0357017) was “no effect”.
